In patent publication US20220105051A1, “COMPOUNDS FOR INCREASING MHC-I EXPRESSION AND MODULATING HISTONE DEACETYLASE ACTIVITY” (Cava Healthcare Inc., priority 2019, published 2022):
Entries after “also recorded” stand apart in the source; their conditions may differ.

What was measured:
[1] = Pharmacokinetics in mouse plasma; type: in vivo; settings: 5.2 mg/kg i.p.; for half-life in mouse plasma: Example 3; for half-life / concentration at 5 min: female; for half-life: C57BL/6, ip, mouse plasma, Example 1; for concentration at 5 min: C57BL/6, mouse, plasma, intraperitoneal, read-out: concentration in mouse plasma after 5 minutes
Description: To assess the pharmacokinetics (PK) of the curcuphenol analogues, a mass spectrometry assay was developed to measure the compounds in plasma. This assay was created by The Metabolomics Innovation Center (TMIC) at UVic-Genome BC Proteomics Centre located in Victoria, British Columbia. Eight samples were sent to TMIC for PK design for identification of P02-113 and P03-97-1 in mouse plasma. To collect plasma, mice were anesthetized using isoflurane and blood was collected by cardiac puncture. Plasma was isolated from blood in a potassium-EDTA coated Tube with K2E (BD Microtainer) and centrifugation at 10,000×g for 1 minute. Plasma was transferred to a cryovial and stored at −20° C. before being shipped on dry ice. TMIC used a chemical derivatization—UPLC-MMR/MS method to create a quantitative analysis tool for the compounds using dansyl chloride (DAN.CI) as the derivatizing reagent. 13C-labeled DAN.CI was used to produce stable isotope-labeled internal standards (ISs). All tests were performed using an UPLC-4000 QTRAP system with ESI and (+) ion detection using C18 column and acetonitrile-water-formic acid as the mobile phase.
For the PK analysis of P02-113 and P03-97-1, mice were injected i.p. and anesthetized before blood was collected by cardiac puncture at five time points (5 min, 10 min, 30 min, 1 hour and 6 hour). […] Three female C57BL/6 mice, between the ages 6-8 weeks, were used for each compound for each time point, giving a total […]. All mice were injected at the highest maximum tolerated dose (5.2 mg/kg) and plasma was prepared and stored as previously described above.
Pharmacokinetic study. […]. Three mice were used for each time point, with a total of […]. Time points were strategically chosen based on the similar structure of the compounds to TSA, an HDACi, which is known to augment TAP and MHC-I expression in metastatic tumours and to be metabolized at a high rate. The chosen time points were 5 minutes, 10 minutes, 1 hour and 6 hours.

HDAC10 = target: T1, HDAC10 (Homo sapiens, UniProt Q969S8); assay: Individualized HDAC assay, HDAC10 (HDAC-Glo); type: biochemical; settings: purified enzyme; for HDAC10 activity: 5 to 0.02 μM
T1 construct: purchased BPS Biosciences
T1 sequence (Q969S8 1-669): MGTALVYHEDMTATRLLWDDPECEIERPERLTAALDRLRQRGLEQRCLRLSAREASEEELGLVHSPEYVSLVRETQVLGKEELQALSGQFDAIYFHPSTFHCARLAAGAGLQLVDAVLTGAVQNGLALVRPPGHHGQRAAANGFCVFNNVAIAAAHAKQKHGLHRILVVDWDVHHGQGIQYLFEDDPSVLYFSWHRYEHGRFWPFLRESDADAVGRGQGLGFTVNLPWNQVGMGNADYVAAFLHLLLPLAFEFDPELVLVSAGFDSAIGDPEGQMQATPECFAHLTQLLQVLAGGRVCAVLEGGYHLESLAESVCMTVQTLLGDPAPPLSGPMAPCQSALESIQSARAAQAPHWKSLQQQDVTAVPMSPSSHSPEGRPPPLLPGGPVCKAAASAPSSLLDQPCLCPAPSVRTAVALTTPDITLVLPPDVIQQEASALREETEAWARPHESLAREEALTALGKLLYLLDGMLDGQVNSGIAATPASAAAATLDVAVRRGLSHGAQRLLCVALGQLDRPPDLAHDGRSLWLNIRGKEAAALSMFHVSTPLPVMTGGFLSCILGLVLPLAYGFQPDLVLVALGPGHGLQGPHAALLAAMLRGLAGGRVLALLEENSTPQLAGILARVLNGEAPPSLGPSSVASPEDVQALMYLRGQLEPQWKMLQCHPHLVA
Description: The activity of the curcuphenol analogues was assessed with purified HDAC enzymes from all classes I, II, and IV, as well as a select member of HDAC class III (SIRT1). HDACs 1-9 and SIRT1 were evaluated using HDAC Fluorogenic Assay Kits (BPS Biosciences). All assays were completed in black-sided clear-bottom 96 well plates (PerkinElmer), and all treatments were plated in triplicates. Treatment started at 5 μM and was two-fold diluted to a concentration 0.02 μM. The assays were measured using the Synergy HI hybrid reader (BioTek) and Gen5 software (BioTek), excitation was set to 360 nm and detection was measured at 450 nm with a gain of 100. Alternatively HDAC 10 and 11 (BPS Biosciences) were optimized for HDAC concentration using the HDAC-Glo™ I/II Assay and Screening System (Promega). Following optimization each HDAC was run following the Promega protocol in black-sided clear-bottomed 96 well plates in triplicates with same treatments listed above (PerkinElmer). Luminescence was read 30 minutes after HDAC-Glo™I/II reagent was added using the Synergy HI hybrid reader (BioTek) and Gen5 software (Bio-Tek). […] To calculate percent activity, the average of blank wells was subtracted from all treatment groups. The relative mean of activity of the HDAC being measured was determined and all wells that received treatment were divided this average, to give a percentage of activity.
To evaluate the effect of the compounds on specific HDACs, their activity was assessed with purified HDAC enzymes from all classes I, II, and IV, as well as a select member of HDAC class III (SIRT1). HDACs 1-9 and SIRT1 were evaluated using HDAC Fluorogenic Assay Kits (BPS Biosciences) following the manufacturer's recommendations. Compound treatment started at 5 μM and was two-fold diluted to a concentration 0.02 μM. Alternatively, HDAC 10 and 11 assays (BPS Biosciences) were optimized to be used with the HDAC-Glo™ I/II Assay and Screening System (Promega). The assays were measured using the Synergy HI hybrid reader (BioTek) and Gen5 software (Bio-Tek). […] To calculate the fold change in HDAC activity, the values from each treated well were divided by the relative mean of activity of the specific HDAC being measured.

Row | SMILES | level in mouse plasma at the 6 hour time point [1] | time at which plasma concentration was half of the 5 minute concentration [1] | half-life in mouse plasma [1] | half-life [1] | concentration at 5 min [1] | concentration range of HDAC10 enhancement (HDAC10) | HDAC10 activity (HDAC10) | HDAC10 activity (HDAC10; listed as PO-3-97-1)
1 | CC(C)=CCCCc1ccc(C)cc1O [P02-113] | undetectable levels | 10 min | roughly one | < 5 min | 0.4 ng/mL | enhanced at all concentrations tested | enhanced; also recorded: increase in activity levels | –
2 | COc1ccc(C(C)CCC=C(C)C)c(O)c1 (stereo not shown) [P03-97-1] | undetectable levels | around 20 minutes | roughly one | 15 min | 30 ng/mL | enhanced at all concentrations tested | enhanced; also recorded: increase in activity levels | enhanced
3 | CC(C)=CCC[C@H](C)c1ccc(C)cc1O [Curcuphenol, curcuphenol] | – | – | – | – | – | – | activates | –
